{"source": "patent US20040019118A1", "about": "“NMDA receptor antagonists and their use in inhibiting abnormal hyperphosphorylation of microtubule associated protein tau” (priority 2002, published 2004)", "key": {"[1]": {"biological_target": "T1, PP-2A (Rattus norvegicus, UniProt P63331)", "T1 construct": "from tissue; host or cells: organotypic culture of adult rat hippocampal slices; 16,000xg extract", "T1 sequence (P63331 whole entry)": "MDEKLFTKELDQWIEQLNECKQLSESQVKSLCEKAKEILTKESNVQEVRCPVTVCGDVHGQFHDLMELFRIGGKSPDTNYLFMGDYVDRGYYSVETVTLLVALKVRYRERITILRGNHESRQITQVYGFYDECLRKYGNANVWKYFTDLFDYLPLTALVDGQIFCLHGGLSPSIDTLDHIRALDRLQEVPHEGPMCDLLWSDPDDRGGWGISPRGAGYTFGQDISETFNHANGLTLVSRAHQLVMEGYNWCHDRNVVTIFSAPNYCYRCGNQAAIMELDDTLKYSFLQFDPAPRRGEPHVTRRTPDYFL", "assay": "PP-2A activity in extracts of treated hippocampal slice cultures", "assay_type": "cell-based", "protocol": "Organotypic cultures of rat hippocampal slices were prepared from 20-30 day old Wistar rats and cultured with the interface method as described previously (Stoppini, et al. 1991; Bahr, et al. 1995; Zhongrin, et al. 2000). The rats were anesthetized with ketamine (100 mg/kg body weight) and decapitated and the hippocampi were dissected out and sliced into 400 um coronal sections by a McIllwain tissue chopper. Select slices with uninterrupted bright transparent neuronal layers were plated, 1-3 slices/filter, onto Millicell CM filters (Millipore, Bedford, Mass.). For the first 2 days in vitro (DIV) cultures were maintained in 25% horse serum, 50% Basal Media-Eagle (BEM), 25% Eagle's Balanced Salt Solution (EBSS), 25 mM HEPES, 1 mM glutamine, 28 mM glucose, pH 7.2, at 32° C. in a 5% CO2 humidified atmosphere. The slice cultures were then switched to 25% horse serum, 50% BEM and EBSS modified so that the potassium concentration was 2.66 mM, for another 5 DIV. After 7 DIV, the cultures were maintained in physiological potassium containing 5% horse serum medium at 35° C. for at least 20 days before any treatment was applied. When the slices were treated, the reagents were applied into the culture medium. At different time points, the slices collected with a brush were washed twice in homogenizing buffer (50 mM HEPES, pH 7.0, 10 mM β-merceptoethanol [BME], 1 mM EDTA, 1 mM EGTA, 0.1 mM phenylmethyl sulfonyl fluoride [PMSF], 2.0 mM benzamidine and 2.0 μg/ml each of aprotinin, leupeptin and pepstatin) and homogenized at 4° C. using a Teflon-glass homogenizer. The homogenate was then divided into two parts, one was centrifuged at 16000×g for 15 min and the supernatant was used to assay activities of PP-2A and PP-1. The rest of the homogenate was diluted 1:1 with a phosphatase inhibitor cocktail (20 mM β-glycerophosphate, 2 mM Na3VO4 and 100 mM NaF, pH 7.0) and either used for Western blots or centrifuged at 16000×g for 15 min and the resulting supernatant used to determine the kinase activities.\n(§1) Activities of PP-2A and PP-1 were assayed towards [^32P] phosphorylase-a as a substrate as described previously (Gong, et al. 1994). The phosphatase activity was assayed in 20 μl of reaction mixture containing 50 mM Tris, pH 7.0, 10 mM BME, 0.1 mM EDTA, 7.5 mM caffeine, 7.5 ng/μl [^32P]phosphorylase-a and 0.06 mg/ml slice culture extract. The reaction was started by adding ^32P-phosphorylase-a. After incubation for 30 min at 30° C., 7 μl of the reaction mixture was spotted on to 31 ETCHR chromatography paper which had been prespotted with 10 μl stop solution (4 mM ATP+20% TCA). Then the ^32p released was separated from the protein-incorporated ^32P by paper chromatography in 5% TCA and 0.2 M NaCl, paper strips dried, cut and counted by Cerenkov radiation. A PP-1 specific inhibitor, inhibitor-1 (Hitken, et al. 1982) was included in the assays for PP-2A activity. PP-1 activity was calculated by subtracting the PP-2A activity from the total phosphorylase-a phosphatase activity (PP-1/PP-2A) assayed in the absence of inhibitor-1."}, "[2]": {"system": "GSK-3", "assay": "GSK-3 activity in extracts of treated hippocampal slice cultures", "assay_type": "cell-based, rat", "protocol": "(§2) Organotypic cultures of rat hippocampal slices were prepared from 20-30 day old Wistar rats and cultured with the interface method as described previously (Stoppini, et al. 1991; Bahr, et al. 1995; Zhongrin, et al. 2000). The rats were anesthetized with ketamine (100 mg/kg body weight) and decapitated and the hippocampi were dissected out and sliced into 400 um coronal sections by a McIllwain tissue chopper. Select slices with uninterrupted bright transparent neuronal layers were plated, 1-3 slices/filter, onto Millicell CM filters (Millipore, Bedford, Mass.). For the first 2 days in vitro (DIV) cultures were maintained in 25% horse serum, 50% Basal Media-Eagle (BEM), 25% Eagle's Balanced Salt Solution (EBSS), 25 mM HEPES, 1 mM glutamine, 28 mM glucose, pH 7.2, at 32° C. in a 5% CO2 humidified atmosphere. The slice cultures were then switched to 25% horse serum, 50% BEM and EBSS modified so that the potassium concentration was 2.66 mM, for another 5 DIV. After 7 DIV, the cultures were maintained in physiological potassium containing 5% horse serum medium at 35° C. for at least 20 days before any treatment was applied. When the slices were treated, the reagents were applied into the culture medium. […]"}, "[3]": {"system": "cdk5", "assay": "cdk5 activity in extracts of treated hippocampal slice cultures", "assay_type": "cell-based, rat", "protocol": "as §2"}, "[4]": {"system": "tau phosphorylated at Ser-262", "assay": "Immunohistochemical staining of tau phosphorylated at Ser 262 in cultured hippocampal slices", "assay_type": "cell-based, rat", "conditions": "100 nM OA 24 h", "protocol": "as §2, with “DIV.” for “DIV. After 7 DIV, the cultures were maintained in physiological potassium containing 5% horse serum medium at 35° C. for at least 20 days before any treatment was applied. When the slices were treated, the reagents were applied into the culture medium.”\nAfter different treatments some of the hippocampal slices were fixed in periodate/lysine/paraformaldehyde solution (Mclean, et al. 1974) at 33° C. for 5 h and then kept in 1% Triton-x-100 in PBS (pH 7.4) for 72 h at room temperature to improve the penetration of the antibodies. […] Peroxidase was detected using 0.05% diaminobenzidine (DAB) and H2O2 (0.01%) for 10 min."}, "[5]": {"system": "MAP2", "assay": "125I-Western blots of MAP2 in slice homogenates", "assay_type": "cell-based, rat", "protocol": "as §2, with “DIV.” for “DIV. After 7 DIV, the cultures were maintained in physiological potassium containing 5% horse serum medium at 35° C. for at least 20 days before any treatment was applied. When the slices were treated, the reagents were applied into the culture medium.”\n(§3) The phosphorylation of tau at Ser 262 and the levels of MAP2 and phosphorylated NF-H/M were assayed by ^125I-Western blots. […] Both immuno-dot-blots and Western blots were developed with ^125I-radiolabeled secondary antibodies and radioimmunoreactivity was visualized and quantitated using a phosphorimager (Fujifilm BAS-1500) and TINA 2.0 software (Raytest Isotopenmessgeräte GmbH)"}, "[6]": {"system": "NF-H/M", "assay": "125I-Western blots of phosphorylated NF-H/M in slice homogenates", "assay_type": "cell-based, rat", "protocol": "as §2, with “DIV.” for “DIV. After 7 DIV, the cultures were maintained in physiological potassium containing 5% horse serum medium at 35° C. for at least 20 days before any treatment was applied. When the slices were treated, the reagents were applied into the culture medium.”\nas §3"}, "[7]": {"biological_target": "T1, PP-2A", "assay": "PP-2A activity after in vitro addition to 16,000xg extract of hippocampal slices", "assay_type": "biochemical", "protocol": "as §1\nFor this purpose we treated the hippocampal slices in culture either with 100 nM OA plus 10 μM Memantine or with OA alone for 24 h, followed by a wash and then treatment with or without Memantine for another 24 h."}, "[8]": {"biological_target": "PP-2A (Homo sapiens, UniProt P67775)", "sequence (P67775 whole entry)": "as the sequence (P63331 whole entry) above, with L5V counted along it", "conditions": "read-out: in vitro IC50; cited from earlier work"}, "[9]": {"conditions": "Memantine in OA-treated cultures"}}, "note": "Entries after “also recorded” stand apart in the source; their conditions may differ. Like-named read-outs stand apart in the source and are kept apart here."}
{"smiles": "CC12CC3CC(C)(C1)CC(N)(C3)C2", "note": "[Memantine, 1-amino-3,5-dimethyl adamantane]", "values": [{"measurement": "restoration of OA-inhibited PP-2A activity", "setting": "[1]; 100 nM OA and 1, 10 or 30 μM Memantine, 3-48 h (FIG. 2a), p<0.02", "value": "restored the OA-inhibited PP-2A activity to normal level"}, {"measurement": "restoration of PP-2A activity", "setting": "[1]; 100 nM OA plus 10 μM Memantine 24 h, or OA 24 h, wash, then Memantine 24 h", "value": "restored the PP-2A activity to normal level; also recorded: almost completely restored; also recorded: restored the activities of both PP-2A and CaMKII"}, {"measurement": "restoration of OA-inhibited PP-2A activity", "setting": "[1]; 100 nM OA, 10 μM Memantine, 24 h", "value": "practically completely restored; also recorded: restored the OA-induced changes in the activities of PP-2A, CaMKII and PKA to normal levels"}, {"measurement": "restoration of OA-inhibited PP-2A activity", "setting": "[1]; 5 μM compound", "value": "restoration"}, {"measurement": "additional effect on restoration of PP-2A activity", "setting": "[1]; Memantine 10 to 30 μM, or 24 h to 48 h", "value": "Neither increase of Memantine from 10 μM to 30 μM nor duration of the treatment from 24 h to 48 h resulted in any significant additional effect"}, {"measurement": "concentration giving full effect on restoration of PP-2A activity", "setting": "[1]; OA-treated slices", "value": 10, "unit": "µM"}, {"measurement": "lowest concentration at which restoration of PP-2A activity was observed", "setting": "[1]; OA-treated slices", "value": 1, "unit": "µM"}, {"measurement": "effect on PP-2A activity", "setting": "[1]; after 0.3 mM glutamate 1 h, 10 μM Memantine or 15 μM MK801", "value": "no effect"}, {"measurement": "effect on PP-2A activity in control (untreated) slices", "setting": "[1]; no OA", "value": "no significant effect"}, {"measurement": "effect on GSK-3 activity", "setting": "[2]; [9]", "value": "neither OA nor Memantine had any significant effect; also recorded: no significant effect"}, {"measurement": "effect on cdk5 activity", "setting": "[3]; [9]", "value": "neither OA nor Memantine had any significant effect; also recorded: no significant effect"}, {"measurement": "pS262 positive cells / p-Ser-262 immunostaining", "setting": "[4]; then 10 μM Memantine 24 h", "value": "decreased dramatically; also recorded: markedly decreased; also recorded: restored in large part"}, {"measurement": "MAP2 level", "setting": "[5]; OA then Memantine", "value": "reversal to normal levels; also recorded: increased the levels of MAP2"}, {"measurement": "phosphorylated NF-H/M level", "setting": "[6]; OA plus/then Memantine", "value": "reversed the OA-induced increase in phosphorylated NF-H/M; also recorded: reversal of phosphorylation and accumulation of NF-H/M subunits; also recorded: reversed the hyperphosphorylation of NF-H/M"}, {"measurement": "effect on PP-2A activity of extract of slices cultured with 100 nM OA for 24 h", "setting": "[7]; Memantine 1-10 μM added to extract", "value": "no significant effect; also recorded: failed to restore"}, {"measurement": "effect on PP-2A activity inhibited in extract with 100 nM OA", "setting": "[7]; Memantine 1 to 60 μM added to extract", "value": "no significant effect"}]}
{"smiles": "C=C1[C@@H](O)[C@@H]2O[C@]3(CC[C@H](/C=C/[C@@H](C)[C@@H]4CC(C)=C[C@@]5(O[C@H](C[C@@](C)(O)C(=O)O)CC[C@H]5O)O4)O3)CC[C@H]2O[C@@H]1[C@@H](O)C[C@H](C)[C@H]1O[C@@]2(CCCCO2)CC[C@H]1C", "note": "[OA, Okadaic Acid]", "values": [{"measurement": "inhibition (decrease) of PP-2A activity", "setting": "[1]; 100 nM OA, 24 h", "value": "~40", "unit": "%"}, {"measurement": "inhibition (decrease) of PP-2A activity", "setting": "[1]; 1000 nM (1 μM) OA, 48 h, 1 µM", "value": "~75", "unit": "%"}, {"measurement": "inhibition at 0.1 µM", "setting": "[1]; read-out: inhibition (decrease) of PP-2A activity, 100 nM OA, 24 h", "value": 42, "unit": "%"}, {"measurement": "inhibition at 1 µM", "setting": "[1]; read-out: inhibition (decrease) of PP-2A activity, 1000 nM (1 μM) OA, 48 h", "value": 78, "unit": "%"}, {"measurement": "inhibition at 0.01 µM", "setting": "[1]; read-out: inhibition of PP-2A activity, 10 nM OA, 24 h", "value": "~20", "unit": "%"}, {"measurement": "inhibition at 1 µM", "setting": "[1]; read-out: inhibition of PP-2A activity, 1 μM OA, 24 h", "value": "~65", "unit": "%"}, {"measurement": "change in GSK-3 activity", "setting": "[2]; OA-treated slice cultures", "value": "no significant change; also recorded: neither OA nor Memantine had any significant effect; also recorded: no significant alteration"}, {"measurement": "change in cdk5 activity", "setting": "[3]; OA-treated slice cultures", "value": "no significant change; also recorded: neither OA nor Memantine had any significant effect; also recorded: no significant alteration"}, {"measurement": "pS262 positive cells / p-Ser-262 staining", "setting": "[4]; then medium 24 h", "value": "increased markedly; also recorded: marked increase"}, {"measurement": "MAP2 level", "setting": "[5]; OA-treated cultures", "value": "a decrease in MAP2"}, {"measurement": "phosphorylated NF-H/M level", "setting": "[6]; OA-treated cultures", "value": "increase in phosphorylated NF-H/M"}, {"measurement": "inhibition at 0.1 µM", "setting": "[7]; read-out: inhibition of PP-2A activity, 100 nM OA added to extract of untreated cultures", "value": 90, "unit": "%"}, {"measurement": "IC50", "setting": "[8]", "value": "~1", "unit": "nM"}]}
